Experimental data taken from patent US20090209601A1, “USE OF RXR AGONISTS FOR THE TREATMENT OF OSTEOARTHRITIS” (Wyeth, priority 2008, published 2009).

Legend:
RXRα = RXRα expression by qRT-PCR in cytokine-treated primary articular chondrocytes; assay type: cell-based; conditions: primary human articular chondrocytes (n=4 donors), monolayer culture, 18 hours; IL-1β 1 ng/ml, TNFα 10 ng/ml; vs vehicle/untreated
Description: (§1) For isolation of RNA from chondrocytes in monolayer culture, pellets were digested with collagenase (2.5 mg/ml, Sigma, St Louis, Mo.) and RNA was subsequently prepared using TRIzol reagent (Invitrogen) according to the manufacturer's protocol. Primary chondrocytes in monolayer culture were lysed by direct addition of TRIzol reagent followed by standard TRIzol RNA purification methodologies.
(§2) Chondrocytes were isolated from fresh human articular cartilage using a standard method previously described (Heinlein et al., Endocr. Rev. 25:276-308 (2004)). Cells were cultured in 10% FBS containing DMEM/F12 growth media for 2-3 days in 12 well culture plates at a density of 1-2×10^6 cells/well. Chondrocyte cultures were stimulated with cytokines (TNFα: 10 ng/ml; IL-1β: 1 ng/ml) for 18 hours.
(§3) cDNA was prepared from purified RNA using the High-Capacity cDNA Archive Kit (Applied Biosystems, catalog #4322171) according to the manufacturer's instructions. Quantitative real-time PCR was performed using either human TaqMan® Gene Expression assays or TaqMan® Low Density Arrays (TLDA) from Applied Biosystems. Thermal cycling was performed using either an ABI Prism 7900 Sequence Detection System (for TLDA) or an ABI Prism 7700 Sequence Detection System (for individual TaqMan® Gene Expression Assays). […]

RXRγ = RXRγ expression by qRT-PCR in cytokine-treated primary articular chondrocytes; assay type: cell-based; conditions: primary human articular chondrocytes (n=4 donors), monolayer culture, 18 hours; IL-1β 1 ng/ml, TNFα 10 ng/ml; vs vehicle/untreated
Description: as §1, §2, §3

In the case of “IL-1: inflammatory cytokine purchased from R&D Systems, used to stimulate chondrocyte cultures”, the RXRα expression (RXRα) is reported as “significantly reduced” and the RXRγ expression (RXRγ) is reported as “not”.
